≈ marks a conversion by molar mass, not a printed value. Positions of bridges follow the written chain, without caps; N, C: chain ends. Residues, ends and D or L forms follow the SMILES beside them. Chains are numbered I, II in the order given. *: point of attachment. Myristoyl = CCCCCCCCCCCCCC(=O)*
Legend:
Assay in all cases: microbe, parasite or virus in culture
[1] = system: Methicillin-resistant S. aureus ATCC 43300; conditions: ATCC 43300, 24 h
Procedure: (§1) Antimicrobial activity of compounds was tested against a number of bacterial strains by broth microdilution (BMD) assay with MIC determination, including S. aureus (MSSA ATCC® 29213™, MRSA ATCC® 43300™, VISA NARSA NRS1, VISA NARSA NRS4), Streptococcus pneumoniae (MDR ATCC® 700677™) and Enterococcus faecium (MDR VanA ATCC® 51559™). ATCC strains were sourced from the American Type Culture Collection and NRS strains from NARSA (Network on Antimicrobial Resistance in S. aureus) via BEI Resources (www.beiresources.org). All compounds were prepared to 160 µg mL^−1 solution in water from a stock solution of 1 mM concentration.
[…] […] Standards ranged from 64 to 0.03 µg mL^−1 and compounds from 8 to 0.003 µg mL^−1 with final assay volumes of 100 µL per well. Gram-positive bacteria were cultured in Mueller Hinton broth (MHB) (Bactolaboratories, Cat. no. 211443) at 37 °C overnight. A sample of each culture was then diluted 40-fold in fresh MHB and incubated at 37 °C for 2–3 h. […] All the plates were covered and incubated at 37 °C for 24 h. MICs were the lowest concentration showing no visible growth.

[2] = system: Vancomycin-resistant (VanA) Enterococcus faecium ATCC 51559; conditions: ATCC 51559
Procedure: as §1
(§2) The compounds, along with standard antibiotics were serially diluted twofold across the wells of 96-well non-binding surface (NBS) polystyrene plates (Corning 3641). […] Standards ranged from 64 to 0.03 µg mL^−1 and compounds from 8 to 0.003 µg mL^−1 with final assay volumes of 100 µL per well. Gram-positive bacteria were cultured in Mueller Hinton broth (MHB) (Bactolaboratories, Cat. no. 211443) at 37 °C overnight. A sample of each culture was then diluted 40-fold in fresh MHB and incubated at 37 °C for 2–3 h. […] All the plates were covered and incubated at 37 °C for 24 h. MICs were the lowest concentration showing no visible growth.

[3] = system: Vancomycin-intermediate S. aureus NRS1; conditions: Vancomycin-intermediate NRS1
Procedure: as §1, §2

[4] = system: Multi-drug-resistant S. pneumoniae ATCC 700677; conditions: ATCC 700677
Procedure: as §1, §2

Structure (SMILES)	MIC MRSA [1] [µg/mL]	MIC VRE [2] [µg/mL]	MIC VISA [3] [µg/mL]	MIC MDR S.P. [4] [µg/mL]
CCCCCCCCCCCCCC(=O)NCC(=O)N[C@@H](CO)C(=O)N[C@@H](CO)C(=O)N[C@@H](CCCCN)C(=O)N[C@@H](CO)C(=O)N1CCC[C@H]1C(=O)N[C@@H](CO)C(=O)N[C@@H](CCCCN)C(=O)N[C@@H](CCCCN)C(=O)N[C@@H](CCCCN)C(=O)N[C@@H](CCCCN)C(=O)N[C@@H](CCCCN)C(=O)N[C@@H](CCCCN)C(=O)N1CCC[C@H]1C(=O)NCC(=O)N[C@@H](CC(=O)O)C(=O)N[C@@H](CS)C(N)=O [Compound 8a] (Myristoyl-GSSKSPSKKKKKKPGDC-NH2)	>8	>8	–	–
CCCCCCCCCCCCCC(=O)NCC(=O)N[C@@H](CO)C(=O)N[C@@H](CO)C(=O)N[C@@H](CCCCN)C(=O)N[C@@H](CO)C(=O)N1CCC[C@H]1C(=O)N[C@@H](CO)C(=O)N[C@@H](CCCCN)C(=O)N[C@@H](CCCCN)C(=O)N[C@@H](CCCCN)C(=O)N1CCC[C@H]1C(=O)N[C@@H](CS)C(N)=O [Compound 12a] (Myristoyl-GSSKSPSKKKPC-NH2)	>8	>8	–	–
CCCCCCCCCCCCCC(=O)NCC(=O)N[C@@H](CO)C(=O)N[C@@H](CCCCN)C(=O)N[C@@H](CCCCN)C(=O)N[C@@H](CCCCN)C(=O)N[C@@H](CS)C(N)=O [Compound 13a, Myristoyl-GSKKKC-NH 2] (Myristoyl-GSKKKC-NH2)	>8	>8	–	–
CCCCCCCCCCCCCC(=O)NCC(=O)N[C@@H](CO)C(=O)N[C@@H](CCCCN)C(=O)N[C@@H](CCCCN)C(=O)N[C@@H](CCCCN)C(=O)N[C@@H](CS)C(=O)O [Compound 14a, Myristoyl-GSKKKC-OH] (Myristoyl-GSKKKC-OH)	>8	>8	–	–
CCCCCCCCCCCCCC(=O)N[C@@H](CCCCN)C(=O)N[C@@H](CCCCN)C(=O)N[C@@H](CCCCN)C(=O)N[C@@H](CSSC[C@H](NC(=O)[C@H](CCCCN)NC(=O)[C@H](CCCCN)NC(=O)[C@H](CCCCN)NC(=O)CCCCCCCCCCCCC)C(=O)O)C(=O)O [Compound 15a, Myristoyl-KKKC-OH – disulphide dimer] (I: Myristoyl-KKKC-OH / II: Myristoyl-KKKC-OH; disulfide I:4-II:4)	>8	>8	–	–
CNC(=O)[C@H](CCCCNC(=O)[C@H]1NC(=O)[C@H]2NC(=O)[C@H](NC(=O)[C@@H]3NC(=O)[C@H](CC(N)=O)NC(=O)[C@H](NC(=O)[C@@H](CC(C)C)NC)[C@H](O)c4ccc(c(Cl)c4)Oc4cc3cc(c4O[C@@H]3O[C@H](CO)[C@@H](O)[C@H](O)[C@H]3O[C@H]3C[C@](C)(N)[C@H](O)[C@H](C)O3)Oc3ccc(cc3Cl)[C@H]2O)c2ccc(O)c(c2)-c2c(O)cc(O)cc21)NC(=O)[C@H](CCCCN)NC(=O)[C@@H](CCCCN)NC(=O)[C@H](CCCCNC(=O)c1ccc(Oc2ccccc2)cc1)NC(=O)c1ccc(Oc2ccccc2)cc1 [Compound 26]	<0.003	1.5 (≈ 0.634 µM)	0.19 (≈ 0.0803 µM)	<0.003
CNC(=O)[C@H](CCCCNC(=O)[C@H]1NC(=O)[C@H]2NC(=O)[C@H](NC(=O)[C@@H]3NC(=O)[C@H](CC(N)=O)NC(=O)[C@H](NC(=O)[C@@H](CC(C)C)NC)[C@H](O)c4ccc(c(Cl)c4)Oc4cc3cc(c4O[C@@H]3O[C@H](CO)[C@@H](O)[C@H](O)[C@H]3O[C@H]3C[C@](C)(N)[C@H](O)[C@H](C)O3)Oc3ccc(cc3Cl)[C@H]2O)c2ccc(O)c(c2)-c2c(O)cc(O)cc21)NC(=O)[C@H](CN)NC(=O)[C@H](CN)NC(=O)[C@H](CCCCNC(=O)c1ccc(Oc2ccccc2)cc1)NC(=O)c1ccc(Oc2ccccc2)cc1 [Compound 29, POB2K-Dap-Dap-K(Vancomycin)-NHMe]	0.0045 (≈ 0.00197 µM)	0.75 (≈ 0.328 µM)	0.0925 (≈ 0.0405 µM)	0.0085 (≈ 0.00372 µM)
CNC(=O)[C@H](CCCCNC(=O)[C@H]1NC(=O)[C@H]2NC(=O)[C@H](NC(=O)[C@@H]3NC(=O)[C@H](CC(N)=O)NC(=O)[C@H](NC(=O)[C@@H](CC(C)C)NC)[C@H](O)c4ccc(c(Cl)c4)Oc4cc3cc(c4O[C@@H]3O[C@H](CO)[C@@H](O)[C@H](O)[C@H]3O[C@H]3C[C@](C)(N)[C@H](O)[C@H](C)O3)Oc3ccc(cc3Cl)[C@H]2O)c2ccc(O)c(c2)-c2c(O)cc(O)cc21)NC(=O)[C@H](CCN)NC(=O)[C@H](CCCCN)NC(=O)[C@H](CCCCNC(=O)c1ccc(Oc2ccccc2)cc1)NC(=O)c1ccc(Oc2ccccc2)cc1 [Compound 30, POB2K-K-Dab-K(Vancomycin)-NHMe]	<0.003	0.75 (≈ 0.321 µM)	0.0925 (≈ 0.0395 µM)	<0.003
CNC(=O)[C@H](CCCCNC(=O)[C@H]1NC(=O)[C@H]2NC(=O)[C@H](NC(=O)[C@@H]3NC(=O)[C@H](CC(N)=O)NC(=O)[C@H](NC(=O)[C@@H](CC(C)C)NC)[C@H](O)c4ccc(c(Cl)c4)Oc4cc3cc(c4O[C@@H]3O[C@H](CO)[C@@H](O)[C@H](O)[C@H]3O[C@H]3C[C@](C)(N)[C@H](O)[C@H](C)O3)Oc3ccc(cc3Cl)[C@H]2O)c2ccc(O)c(c2)-c2c(O)cc(O)cc21)NC(=O)[C@H](CCCCN)NC(=O)[C@H](CCN)NC(=O)[C@H](CCCCNC(=O)c1ccc(Oc2ccccc2)cc1)NC(=O)c1ccc(Oc2ccccc2)cc1 [Compound 31, POB2K-Dab-K-K(Vancomycin)-NHMe]	<0.003	0.375 (≈ 0.16 µM)	0.0925 (≈ 0.0395 µM)	<0.003
CNC(=O)[C@H](CCCCNC(=O)[C@H]1NC(=O)[C@H]2NC(=O)[C@H](NC(=O)[C@@H]3NC(=O)[C@H](CC(N)=O)NC(=O)[C@H](NC(=O)[C@@H](CC(C)C)NC)[C@H](O)c4ccc(c(Cl)c4)Oc4cc3cc(c4O[C@@H]3O[C@H](CO)[C@@H](O)[C@H](O)[C@H]3O[C@H]3C[C@](C)(N)[C@H](O)[C@H](C)O3)Oc3ccc(cc3Cl)[C@H]2O)c2ccc(O)c(c2)-c2c(O)cc(O)cc21)NC(=O)[C@H](CCCN)NC(=O)[C@H](CCCCN)NC(=O)[C@H](CCCCNC(=O)c1ccc(Oc2ccccc2)cc1)NC(=O)c1ccc(Oc2ccccc2)cc1 [Compound 32, POB2K-K-Orn-K(Vancomycin)-NHMe]	<0.003	1 (≈ 0.425 µM)	0.0375 (≈ 0.0159 µM)	<0.003
CNC(=O)[C@H](CCCCNC(=O)[C@H]1NC(=O)[C@H]2NC(=O)[C@H](NC(=O)[C@@H]3NC(=O)[C@H](CC(N)=O)NC(=O)[C@H](NC(=O)[C@@H](CC(C)C)NC)[C@H](O)c4ccc(c(Cl)c4)Oc4cc3cc(c4O[C@@H]3O[C@H](CO)[C@@H](O)[C@H](O)[C@H]3O[C@H]3C[C@](C)(N)[C@H](O)[C@H](C)O3)Oc3ccc(cc3Cl)[C@H]2O)c2ccc(O)c(c2)-c2c(O)cc(O)cc21)NC(=O)[C@H](CCCCN)NC(=O)[C@H](CCCN)NC(=O)[C@H](CCCCNC(=O)c1ccc(Oc2ccccc2)cc1)NC(=O)c1ccc(Oc2ccccc2)cc1 [Compound 33, POB2K-Orn-K-K(Vancomycin)-NHMe]	<0.003	1.5 (≈ 0.637 µM)	0.125 (≈ 0.0531 µM)	0.007 (≈ 0.00297 µM)
CNC(=O)[C@H](CCCCNC(=O)[C@H]1NC(=O)[C@H]2NC(=O)[C@H](NC(=O)[C@@H]3NC(=O)[C@H](CC(N)=O)NC(=O)[C@H](NC(=O)[C@@H](CC(C)C)NC)[C@H](O)c4ccc(c(Cl)c4)Oc4cc3cc(c4O[C@@H]3O[C@H](CO)[C@@H](O)[C@H](O)[C@H]3O[C@H]3C[C@](C)(N)[C@H](O)[C@H](C)O3)Oc3ccc(cc3Cl)[C@H]2O)c2ccc(O)c(c2)-c2c(O)cc(O)cc21)NC(=O)[C@H](CCCN)NC(=O)[C@H](CCCN)NC(=O)[C@H](CCCCNC(=O)c1ccc(Oc2ccccc2)cc1)NC(=O)c1ccc(Oc2ccccc2)cc1 [Compound 34, POB2K-Orn-Orn-K(Vancomycin)-NHMe]	<0.003	0.5 (≈ 0.214 µM)	0.0185 (≈ 0.00791 µM)	<0.003
